Data reported in patent US20020137929A1, “1 - (3-heterocyclylphenyl) isothiourea, -isourea, -guanidine and -amidine herbicidal agents” (Intellectual Property Department, BASF Aktiengesellschaft, priority 1998, published 2002).

Legend:
[1] = test system: IPOHE (Morningglory, Ivyleaf); assay: Postemergence herbicidal evaluation; assay type: in vivo, Ipomoea hederacea; conditions: postemergence
Procedure, shortened: (§1)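 Visual 0–9 rating versus control (stand, vigor, malformation, size, chlorosis, overall appearance), taken four to five weeks post-spray. Two-week-old seedlings received roughly 0.0156–0.500 kg/ha active in acetone/water (50/50) with 0.5% TWEEN 20 via nozzle at 40 psi.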

[2] = test system: AMBEL (Ragweed, Common); assay: Postemergence herbicidal evaluation; assay type: in vivo, Ambrosia artemisifolia; conditions: postemergence
Procedure, shortened: as §1

[3] = test system: ABUTH (Velvetleaf); assay: Preemergence herbicidal evaluation; assay type: in vivo, Abutilon theophrasti; conditions: rated 4-5 weeks after treatment
Procedure, shortened: (§2)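 Test compound, dissolved in aqueous acetone, was sprayed over planted soil cups at an equivalent of about 0.0156 to 0.500 kg/ha; seeds had been mixed with potting soil. Greenhouse growth followed, with visual 0-9 scoring of injury at four to five weeks.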

[4] = test system: SAGPY (Arrowhead (Pygmaea)); assay: Preemergence weed control under flooded paddy conditions; assay type: in vivo, Sagittaria pygmaea; conditions: rated 3-4 weeks after treatment
Procedure, shortened: (§3)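 Seeds or propagules sown in top 0.5 cm of silt loam soil, flooded 1.5 to 3 cm above surface throughout. Compound in 50/50 v/v aqueous/acetone pipetted into flood water at about 0.0313 to 0.500 kg/ha. Visual 0-9 rating versus control after three to four weeks in greenhouse.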

[5] = test system: GLXMAW (Soybean, Williams); assay: Preemergence herbicidal evaluation; assay type: in vivo, Glycine max, (L.) Merr. cv Williams; conditions: rated 4-5 weeks after treatment
Procedure, shortened: as §2

[6] = test system: CASOB (Sicklepod); assay: Postemergence herbicidal evaluation; assay type: in vivo, Cassia obtusifolia; conditions: postemergence
Procedure, shortened: as §1

[7] = test system: TRZAWR (Wheat, Winter, cv Riband); assay: Preemergence herbicidal evaluation; assay type: in vivo, Triticum aestivum; conditions: rated 4-5 weeks after treatment
Procedure, shortened: as §2

[8] = test system: GALAP (Galium); assay: Postemergence herbicidal evaluation; assay type: in vivo, Galium aparine; conditions: postemergence
Procedure, shortened: as §1

[9] = test system: ZEAMX (Corn, Field); assay: Preemergence herbicidal evaluation; assay type: in vivo, Zea mays; conditions: rated 4-5 weeks after treatment
Procedure, shortened: as §2

[10] = test system: IPOHE (Morningglory, Ivyleaf); assay: Preemergence herbicidal evaluation; assay type: in vivo, Ipomoea hederacea; conditions: rated 4-5 weeks after treatment
Procedure, shortened: as §2

[11] = test system: ECHCG (Barnyardgrass); assay: Preemergence herbicidal evaluation; assay type: in vivo, Echinochloa crus-galli; conditions: rated 4-5 weeks after treatment
Procedure, shortened: as §2

[12] = test system: CYPIR (Rice Flatsedge); assay: Postemergence weed control under flooded paddy conditions; assay type: in vivo, Cyperus iria; conditions: postemergence weeds, 3-4 weeks after treatment
Procedure, shortened: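 Flood-water application, about 0.0313–0.500 kg/ha a.i. in aqueous/acetone 50/50 v/v; water depth 1.5–3 cm throughout. Weeds 3–5 cm, rice 1.5–2.5 leaf. Greenhouse; 0–9 visual rating vs control at 3–4 wk.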

[13] = test system: MOOVA (Monochoria); assay: Preemergence weed control under flooded paddy conditions; assay type: in vivo, Monochoria vaginalis; conditions: rated 3-4 weeks after treatment
Procedure, shortened: as §3

[14] = test system: CASOB (Sicklepod); assay: Preemergence herbicidal evaluation; assay type: in vivo, Cassia obtusifolia; conditions: rated 4-5 weeks after treatment
Procedure, shortened: as §2

CCC1SC(=Nc2cc(-n3c(=O)cc(C(F)(F)F)n(C)c3=O)c(F)cc2Cl)N(C)C1=O (stereo not drawn) [Compound 10]
IPOHE herbicidal rating ([1]; rate 0.0156 kg/ha): 3.0 | IPOHE herbicidal rating ([1]; rate 0.0313 kg/ha): 7.0 | IPOHE herbicidal rating ([1]; rate 0.0625 kg/ha): 9.0 | IPOHE herbicidal rating ([1]; rate 0.1250 kg/ha): 8.0 | AMBEL herbicidal rating ([2]; rate 0.0156 kg/ha): 0.5 | AMBEL herbicidal rating ([2]; rate 0.0313 kg/ha): 1.0 | AMBEL herbicidal rating ([2]; rate 0.0625 kg/ha): 2.0 | AMBEL herbicidal rating ([2]; rate 0.1250 kg/ha): 4.5 | ABUTH preemergence herbicidal rating ([3]; rate 0.0156 kg/ha): 5.5 | ABUTH preemergence herbicidal rating ([3]; rate 0.0313 kg/ha): 8.0 | ABUTH preemergence herbicidal rating ([3]; rate 0.0625 kg/ha): 9.0 | ABUTH preemergence herbicidal rating ([3]; rate 0.1250 kg/ha): 9.0 | ABUTH preemergence herbicidal rating ([3]; rate 0.2500 kg/ha): 9.0 | Herbicidal rating SAGPY ([4]; 0.0313 kg/ha): 0.0 | Herbicidal rating SAGPY ([4]; 0.0625 kg/ha): 0.0 | Herbicidal rating SAGPY ([4]; 0.1250 kg/ha): 0.0 | Herbicidal rating SAGPY ([4]; 0.2500 kg/ha): 0.0 | GLXMAW preemergence herbicidal rating ([5]; rate 0.0156 kg/ha): 2.0 | GLXMAW preemergence herbicidal rating ([5]; rate 0.0313 kg/ha): 2.3 | GLXMAW preemergence herbicidal rating ([5]; rate 0.0625 kg/ha): 3.7 | GLXMAW preemergence herbicidal rating ([5]; rate 0.1250 kg/ha): 6.7 | GLXMAW preemergence herbicidal rating ([5]; rate 0.2500 kg/ha): 7.0 | CASOB herbicidal rating ([6]; rate 0.0156 kg/ha): 0.0 | CASOB herbicidal rating ([6]; rate 0.0313 kg/ha): 0.0 | CASOB herbicidal rating ([6]; rate 0.0625 kg/ha): 0.5 | CASOB herbicidal rating ([6]; rate 0.1250 kg/ha): 3.0 | TRZAWR preemergence herbicidal rating ([7]; rate 0.0156 kg/ha): 1.0 | TRZAWR preemergence herbicidal rating ([7]; rate 0.0313 kg/ha): 3.5 | TRZAWR preemergence herbicidal rating ([7]; rate 0.0625 kg/ha): 5.5 | TRZAWR preemergence herbicidal rating ([7]; rate 0.1250 kg/ha): 6.5 | TRZAWR preemergence herbicidal rating ([7]; rate 0.2500 kg/ha): 7.5 | GALAP herbicidal rating ([8]; rate 0.0156 kg/ha): 1.0 | GALAP herbicidal rating ([8]; rate 0.0313 kg/ha): 2.0 | GALAP herbicidal rating ([8]; rate 0.0625 kg/ha): 3.5 | GALAP herbicidal rating ([8]; rate 0.1250 kg/ha): 4.5 | ZEAMX preemergence herbicidal rating ([9]; rate 0.0156 kg/ha): 4.7 | ZEAMX preemergence herbicidal rating ([9]; rate 0.0313 kg/ha): 6.7 | ZEAMX preemergence herbicidal rating ([9]; rate 0.0625 kg/ha): 7.0 | ZEAMX preemergence herbicidal rating ([9]; rate 0.1250 kg/ha): 7.3 | ZEAMX preemergence herbicidal rating ([9]; rate 0.2500 kg/ha): 8.0 | IPOHE preemergence herbicidal rating ([10]; rate 0.0156 kg/ha): 2.0 | IPOHE preemergence herbicidal rating ([10]; rate 0.0313 kg/ha): 3.0 | IPOHE preemergence herbicidal rating ([10]; rate 0.0625 kg/ha): 5.3 | IPOHE preemergence herbicidal rating ([10]; rate 0.1250 kg/ha): 8.3 | IPOHE preemergence herbicidal rating ([10]; rate 0.2500 kg/ha): 9.0 | ECHCG preemergence herbicidal rating ([11]; rate 0.0156 kg/ha): 2.0 | ECHCG preemergence herbicidal rating ([11]; rate 0.0313 kg/ha): 4.0 | ECHCG preemergence herbicidal rating ([11]; rate 0.0625 kg/ha): 7.0 | ECHCG preemergence herbicidal rating ([11]; rate 0.1250 kg/ha): 9.0 | ECHCG preemergence herbicidal rating ([11]; rate 0.2500 kg/ha): 9.0 | Herbicidal rating CYPIR ([12]; rate 0.0313 kg/ha): 0.0 | Herbicidal rating CYPIR ([12]; rate 0.0625 kg/ha): 0.0 | Herbicidal rating CYPIR ([12]; rate 0.1250 kg/ha): 2.0 | Herbicidal rating CYPIR ([12]; rate 0.2500 kg/ha): 4.0 | Herbicidal rating MOOVA ([13]; 0.0313 kg/ha): 9.0 | Herbicidal rating MOOVA ([13]; 0.0625 kg/ha): 9.0 | Herbicidal rating MOOVA ([13]; 0.1250 kg/ha): 9.0 | Herbicidal rating MOOVA ([13]; 0.2500 kg/ha): 9.0 | CASOB preemergence herbicidal rating ([14]; rate 0.0156 kg/ha): 0.0 | CASOB preemergence herbicidal rating ([14]; rate 0.0313 kg/ha): 0.7 | CASOB preemergence herbicidal rating ([14]; rate 0.0625 kg/ha): 0.7 | CASOB preemergence herbicidal rating ([14]; rate 0.1250 kg/ha): 1.3 | CASOB preemergence herbicidal rating ([14]; rate 0.2500 kg/ha): 3.3
